# In US9249128B2 (priority 2010, dated 2016):
# Read-outs that look alike come from different tables or passages of the source.
# Columns and labels:
# [1] = system: MAGE levels in PC3 and DU145 cells; test: Lipid (MAGE) measurements in cancer cells; type: cell-based, human; conditions: 10 μM, 4 h in situ
# Description: (§1) Inhibitors were dissolved in DMSO and diluted into media or buffer prior to cell or proteome treatment, respectively. For in vitro treatment, final DMSO concentration was 4%. For in situ treatments of cells for ABPP, lipid measurements, migration, cell-survival, and invasion assays, 2×10^6 cells were seeded in 6 cm dishes (˜100% confluency) 24 h prior to inhibitor pre-treatment (in DMSO at 0.1% final concentration) in serum-free media (3 mL) for the designated time before harvesting cells for ABPP or lipid measurements or before the initiation of migration, cell-survival, and invasion assays.
# Lipid measurements were performed in cancer cells as previously described (Chiang et al., 2006). Briefly, frozen cell pellets from cells harvested after 4 h serum starvation were extracted in 2:1:1 chloroform:methanol:Tris buffer pH 8.0 by dounce homogenization with 10 nmol of internal standard C12 MAGE. The organic layer was removed, dried under N2, and resuspended in 120 μL of chloroform, and 30 μL was injected into an Agilent 1100-MSD LC-MS. MAGE levels were quantified by measuring the area under the peak and were normalized to the C12 MAGE internal standard.
# PC3 and DU145 cells [2] = test: Invasion assay (Matrigel chambers); type: cell-based, human; conditions: 10 μM, 4 h in situ
# Description: as §1
# (§2) Cell migration, cell survival, and invasion studies were performed as previously described (Nomura et al., 2010). Briefly, migration assays were performed in Transwell chambers (Corning) with 8 μm pore-sized membranes coated with 10 μg/mL collagen at 37° C. for LNCaP (24 h), PC3 (4 h) and DU145 cells (24 h), respectively. Cell survival assays were performed using the Cell Proliferation Reagent WST-1 (Roche) Invasion assays were conducted using the BD Matrigel Invasion Chambers per the manufacturer's protocol. Inhibitors were preincubated for the stated duration before seeding cells into migration, cell-survival, or invasion chambers. Prior to seeding the cells in these chambers, cells were serum-starved for 4 h. Inhibitors were also present during the migration, cell-survival, and invasion assays.
# PC3 and DU145 cells [3] = test: Serum-free cell survival assay (WST-1); type: cell-based, human; conditions: 10 μM, 4 h in situ
# Description: as §1, §2
# KIAA1363 = target: T1, KIAA1363 (Mus musculus, UniProt Q8BLF1); test: Gel-based competitive ABPP of KIAA1363 in mouse brain membrane proteome (FP-rhodamine); type: biochemical
# T1 construct: ABPP analysis of KIAA1363 activity in mouse brain membrane proteome; from tissue; host or cells: mouse brain (membrane fraction)
# T1 sequence (Q8BLF1 1-408): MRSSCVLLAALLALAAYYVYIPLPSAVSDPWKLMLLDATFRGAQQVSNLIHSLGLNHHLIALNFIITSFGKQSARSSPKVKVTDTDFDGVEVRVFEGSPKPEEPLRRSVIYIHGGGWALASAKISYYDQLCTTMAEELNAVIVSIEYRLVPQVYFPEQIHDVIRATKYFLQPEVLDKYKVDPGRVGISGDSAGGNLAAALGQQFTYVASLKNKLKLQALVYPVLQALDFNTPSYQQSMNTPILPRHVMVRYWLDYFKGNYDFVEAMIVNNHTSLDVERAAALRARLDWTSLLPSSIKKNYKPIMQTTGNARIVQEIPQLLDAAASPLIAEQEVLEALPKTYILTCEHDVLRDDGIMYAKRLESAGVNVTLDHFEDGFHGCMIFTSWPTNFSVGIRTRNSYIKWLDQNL
# Description: In various embodiments, the invention provides a method of inhibiting a serine hydrolase, comprising contacting the hydrolase with a compound of formula (I), e.g., a compound selected from set of compounds shown in Table 1, below. […] IC50 values were derived from ABPP analysis of KIAA1363 activity in mouse brain membrane proteome and are averages of three replicates. Inhibitors were added to the proteome for 30 min before addition of FP-rhodamine (1 μM, 30 min).
# Tissues were Dounce-homogenized in PBS, pH 7.4, followed by a low-speed spin (1,400 g, 5 min) to remove debris. The supernatant was then subjected to centrifugation (100,000×g, 45 min) to provide the cytosolic fraction in the supernatant and the unsoluble fraction as a pellet. The pellet was washed and resuspended in PBS buffer by sonication. Total protein concentration in each fraction was determined using a protein assay kit (Bio-Rad). Samples were stored at −80° C. until use.
# (§3) For ABPP experiments, cell lysate and tissue proteomes were treated with 1 μM FP-rhodamine for 30 min at room temperature (50 μL total reaction volume) as described previously (Nomura et al., 2010). Reactions were quenched with one volume of standard 4×SDS/PAGE loading buffer (reducing), separated by SDS/PAGE (10% acrylamide), and visualized in-gel with a Hitachi FMBio IIe flatbed fluorescence scanner (MiraiBio). Inhibitors were preincubated prior (30 min or 4 h at 37° C. in vitro or in situ, respectively) to the addition of FP-rhodamine.
# AChE = target: T2, AChE (Mus musculus, UniProt P21836); test: AChE activity assay with acetylthiocholine in mouse brain proteome; type: biochemical; conditions: acetylthiocholine hydrolysis in mouse brain membrane proteome
# T2 construct: 20 μg of cell lysate or mouse brain membrane proteome; from tissue; host or cells: mouse brain (membrane proteome)
# T2 sequence (P21836 32-614): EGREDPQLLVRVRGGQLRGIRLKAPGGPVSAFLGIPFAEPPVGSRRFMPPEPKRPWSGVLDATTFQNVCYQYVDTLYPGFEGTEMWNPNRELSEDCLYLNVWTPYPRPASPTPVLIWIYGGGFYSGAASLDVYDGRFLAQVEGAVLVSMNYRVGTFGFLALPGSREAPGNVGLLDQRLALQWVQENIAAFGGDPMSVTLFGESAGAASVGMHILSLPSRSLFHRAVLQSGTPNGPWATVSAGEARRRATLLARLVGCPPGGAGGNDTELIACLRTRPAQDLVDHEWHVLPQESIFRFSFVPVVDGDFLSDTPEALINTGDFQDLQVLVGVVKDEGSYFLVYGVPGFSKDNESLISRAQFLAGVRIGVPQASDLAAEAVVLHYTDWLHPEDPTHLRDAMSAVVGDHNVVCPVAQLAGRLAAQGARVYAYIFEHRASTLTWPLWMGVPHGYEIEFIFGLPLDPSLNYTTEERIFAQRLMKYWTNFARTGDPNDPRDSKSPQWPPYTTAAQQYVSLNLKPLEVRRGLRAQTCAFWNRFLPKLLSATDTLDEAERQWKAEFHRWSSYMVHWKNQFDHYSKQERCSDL
# Description: AChE activity was measured using a method similar to that described previously (Ellman et al., 1961). Briefly, 50 μL of 10 mM acetylthiocholine was added to 200 μL of PBS containing 2 mM DTNB and 20 μg of cell lysate or mouse brain membrane proteome. Absorbance was measured at 412 nm over 5 min, and the rate of product accumulation was calculated from the slope of the absorbance over time. For assays involving preincubation with inhibitors, the reactions were prepared without acetylthiocholine and JW480 was incubated at the indicated concentration for 30 min at 37° C. Acetylthiocholine was then added and the assay was carried out exactly as described above.
# HSL = target: T3, HSL (Mus musculus, UniProt P54310); test: Competitive ABPP of HSL in rosiglitazone-differentiated 3T3-10T1/2 adipocyte proteome; type: biochemical
# T3 construct: ABPP analysis of HSL from a rosiglitazone-differentiated 3T3-10T1/2 adipocyte proteome; endogenous in cells; host or cells: rosiglitazone-differentiated 3T3-10T1/2 adipocytes
# T3 sequence (P54310 1-759): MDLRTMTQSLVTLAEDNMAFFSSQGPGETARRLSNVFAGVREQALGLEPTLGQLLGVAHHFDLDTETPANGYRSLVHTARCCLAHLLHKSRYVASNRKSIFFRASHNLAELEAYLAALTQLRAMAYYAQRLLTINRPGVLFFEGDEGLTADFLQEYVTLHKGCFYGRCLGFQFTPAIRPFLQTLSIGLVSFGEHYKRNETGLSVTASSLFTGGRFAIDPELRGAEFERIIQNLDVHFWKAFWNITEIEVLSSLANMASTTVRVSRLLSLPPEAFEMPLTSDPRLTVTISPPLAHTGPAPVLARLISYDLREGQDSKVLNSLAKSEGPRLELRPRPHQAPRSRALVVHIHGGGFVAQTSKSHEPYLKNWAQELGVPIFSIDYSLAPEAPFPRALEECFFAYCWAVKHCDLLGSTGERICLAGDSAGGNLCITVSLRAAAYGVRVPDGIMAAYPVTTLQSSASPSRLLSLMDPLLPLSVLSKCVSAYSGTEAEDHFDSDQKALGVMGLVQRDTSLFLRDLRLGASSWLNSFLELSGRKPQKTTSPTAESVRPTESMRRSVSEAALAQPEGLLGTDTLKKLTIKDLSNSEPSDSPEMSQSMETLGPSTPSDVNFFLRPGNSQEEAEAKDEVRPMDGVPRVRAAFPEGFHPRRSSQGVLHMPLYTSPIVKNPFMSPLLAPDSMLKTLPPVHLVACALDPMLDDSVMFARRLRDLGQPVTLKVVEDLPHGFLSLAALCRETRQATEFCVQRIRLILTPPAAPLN
# Description: as §3
# [4] = mouse brain membrane proteome, inhibitor 30 min before FP-rhodamine (1 μM, 30 min), averages of three replicates, read-out: IC50 (KIAA1363)
# [5] = screened against KIAA1363, Table 1, read-out: IC50 values of less than 1 micromolar
# [6] = screened against KIAA1363, Table 1, read-out: IC50 values of around 10 nanomolar (most potent)
Structure (SMILES),IC50 (KIAA1363; [4]),further results
"CCCCOC[C@H]1CCCC[C@H]1COCCNC(=O)Oc1ccccc1F [AS115, reference compound]",–,MAGE levels [1]: lower MAGE levels; PC3 and DU145 invasion (PC3 and DU145 cells [2]): impair; PC3 and DU145 serum-free cell survival (PC3 and DU145 cells [3]): impair
"Cc1ccc2ccccc2c1OC(=O)NCCc1ccc2ccccc2c1 [JW440, 2-methylnaphthalen-1-yl (2-(naphthalen-2-yl)ethyl)carbamate]",437 nM,IC50 (KIAA1363; [5]): < 1000 nM; Cross-reactivity with AChE (AChE): little or no activity; Cross-reactivity with HSL (HSL): little or no activity
"CCOc1ccccc1OC(=O)NCCc1ccc(OC)cc1 [JW441, 2-ethoxyphenyl 4-methoxyphenethylcarbamate]",> 10000 nM,–
"CCOc1ccccc1OC(=O)NCCc1cccc(OC)c1 [JW442, 2-ethoxyphenyl 3-methoxyphenethylcarbamate]",1010 nM,–
"CCOc1ccccc1OC(=O)NCCC(c1ccccc1)c1ccccc1 [JW443, 2-ethoxyphenyl (3,3-diphenylpropyl)carbamate]",1830 nM,–
"CCOc1ccccc1OC(=O)NCC(c1ccccc1)c1ccccc1 [JW444, 2-ethoxyphenyl (2,2-diphenylethyl)carbamate]",1050 nM,–
"O=C(NCCc1ccc(C(F)(F)F)cc1)Oc1ccc(-n2cccc2)cc1 [JW446, 4-(1H-pyrrol-1-yl)phenyl 4-(trifluoromethyl)phenethylcarbamate]",> 50000 nM,–
"Cc1ccc2ccccc2c1OC(=O)NCCc1ccc(C(F)(F)F)cc1 [JW447, 2-methylnaphthalen-1-yl 4-(trifluoromethyl)phenethylcarbamate]",858 nM,–
"CCOc1ccccc1OC(=O)NCCc1ccc(C(F)(F)F)cc1 [JW448, 2-ethoxyphenyl 4-(trifluoromethyl)phenethylcarbamate]",293 nM,IC50 (KIAA1363; [5]): < 1000 nM
"CC(C)c1ccccc1OC(=O)NCCc1ccc(F)cc1 [JW464, 2-isopropylphenyl 4-fluorophenethylcarbamate]",11.3 nM,IC50 (KIAA1363; [6]): ~10 nM; Cross-reactivity with AChE (AChE): cross-reactivity
"COc1ccc(OC(=O)NCCc2ccc(F)cc2)c2ccccc12 [JW465, 4-methoxynaphthalen-1-yl 4-fluorophenethylcarbamate]",> 50000 nM,–
"Cc1ccc(C(C)C)c(OC(=O)NCCc2ccc(F)cc2)c1 [JW466, 2-isopropyl-5-methylphenyl 4-fluorophenethylcarbamate]",197 nM,IC50 (KIAA1363; [5]): < 1000 nM
"C=CCc1ccccc1OC(=O)NCCc1ccc(F)cc1 [JW468, 2-allylphenyl 4-fluorophenethylcarbamate]",94.3 nM,–
"CN(C)c1cccc(OC(=O)NCCc2ccc(F)cc2)c1 [JW469, 3-(dimethylamino)phenyl 4-fluorophenethylcarbamate]",5160 nM,–
"O=C(NCCc1ccc(F)cc1)Oc1ccc(C2CCCCC2)cc1 [JW472, 4-cyclohexylphenyl 4-fluorophenethylcarbamate]",119 nM,IC50 (KIAA1363; [5]): < 1000 nM
"O=C(NCCc1ccc(F)cc1)Oc1ccc(-c2ccccc2)cc1 [JW473, [1,1′-biphenyl]-4-yl 4-fluorophenethylcarbamate]",955 nM,IC50 (KIAA1363; [5]): < 1000 nM
"O=C(NCCc1ccc(F)cc1)Oc1ccc(C2CCCC2)cc1 [JW474, 4-cyclopentylphenyl 4-fluorophenethylcarbamate]",795 nM,–
"COc1cccc(OC(=O)NCCc2ccc(F)cc2)c1OC [JW477, 2,3-dimethoxyphenyl 4-fluorophenethylcarbamate]",> 10000 nM,–
"CC(C)c1ccccc1OC(=O)NCCc1ccc2c(c1)OCO2 [JW481, 2-isopropylphenyl (2-(benzo[d][1,3]dioxol-5-yl)ethyl)carbamate]",11.3 nM,IC50 (KIAA1363; [6]): ~10 nM
"CC(C)c1ccccc1OC(=O)NCCc1ccc(C(F)(F)F)cc1 [JW482, 2-isopropylphenyl 4-(trifluoromethyl)phenethylcarbamate]",9.4 nM,IC50 (KIAA1363; [6]): ~10 nM
